# Test results: paper PMC6323635 (Journal of natural products, 2016)
# Entries after “also recorded” stand apart in the source; their conditions may differ. Where two headings read alike, the source gives them in different places.
# Columns and labels:
# [1] = tested on: VEGF secretion in HCT 116 cells; assay: VEGF ELISA; format: cell-based, human; details: for Hypoxia-induced VEGF secretion in HCT 116 cells: 48 h, 0.5% O2, concentrations active in HIF reporter assay
# [2] = tested on: HIF-1α transcriptional activity in HCT 116 cells; assay: HIF reporter assay; format: cell-based
# [3] = tested on: HIF-1α transcriptional activity in COLO 205 cells; assay: HIF reporter assay; format: cell-based, human
# COLO 205 cells = assay: CCK-8 cytotoxicity assay under hypoxic conditions; format: cell-based; details: for Cell death in COLO 205 cells: up to concentrations of 10 μM, hypoxia; for IC50: read-out: IC50 value (μM) ± SEM, COLO 205 (48 h, 0.5% O2), COLO 205, 48 h, 0.5% O2, CCK-8
# HCT 116 cells [4] = details: cited from earlier work
# [5] = tested on: ENO1, VEGF, and LDHA mRNA expression in PC3 prostate cancer cells; details: cited from earlier work
# HCT 116 cells [6] = details: cited from earlier work; remark: listed apart in the source
# [7] = tested on: VEGF secretion in LNCaP cells; assay: VEGF ELISA; format: cell-based, human; details: 18 h, 1% O2
# DNA topoisomerase II = details: cited from earlier work
# HIF-1α/p300 = HIF-1α/p300 (Homo sapiens, UniProt Q09472); assay: HIF-1α/p300 screening assay; format: binding
# Chain of HIF-1α/p300 (Q09472 331-417 limits assumed): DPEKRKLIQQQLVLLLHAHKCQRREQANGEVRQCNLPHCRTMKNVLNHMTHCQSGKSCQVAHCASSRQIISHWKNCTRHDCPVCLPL
# [8] = tested on: tumor growth in xenograft models; details: cited from earlier work
# [9] = tested on: HIF-1α transcriptional activity in LNCaP cells; assay: HIF reporter assay; format: cell-based, human
# LNCaP cells = assay: CCK-8 cytotoxicity assay under hypoxic conditions; format: cell-based, human; details: read-out: IC50 value (μM) ± SEM, LNCaP (18 h, 1% O2), 1% O2, CCK-8
# HCT 116 cells [10] = assay: CCK-8 cytotoxicity assay under hypoxic conditions; format: cell-based, human; details: 0.5% O2, CCK-8
# [11] = read-out: IC50 value (μM) ± SEM, HCT 116 (18 h, 0.5% O2), HCT 116, 18 h
# [12] = read-out: IC50 value (μM) ± SD, HIF-1α/p300 screening assay, cell-free assay, ± SD
compound,measurement,setting,value
"O=C1C=C(S[C@H]2[C@H]3C(=O)C=C4S[C@H]5C[C@]42C2=C(N5)C(=O)c4[nH]cc5c4C2=[N+]3CC5)[C@]2(C=C1Br)CCNC1=C2C2=NCCc3c[nH]c(c32)C1=O [compound 2, (−)-discorhabdin B dimer]",Trend in VEGF secretion in HCT 116 cells,"[1]; 0.1–0.25 μM, 18 h and 48 h",statistically nonsignificant trend in the decrease
same,Hypoxia-induced VEGF secretion in HCT 116 cells,[1],none of these compounds significantly reduced
same,Effect on HIF-1α transcriptional (reporter) activity in HCT 116 cells,"[2]; in words, 18 h, 0.5% O2",most potent at decreasing reporter activity
same,"Concentrations causing significant inhibition of luciferase activity, COLO 205","[3]; p < 0.05, 18 h, 0.5% O2",no effect
same,Cell death in COLO 205 cells,COLO 205 cells,did not cause substantial cell death
"O=C1C2=C(C3=NCCc4c[nH]c1c43)[C@]1(C=C(Br)[C@H](O)C(Br)=C1)CCN2 [compound 3, 3-dihydrodiscorhabdin C]","Concentrations causing significant inhibition of luciferase activity, COLO 205","[3]; p < 0.05, 18 h, 0.5% O2",no effect
same,"IC50 values, cytotoxicity in HCT 116 cells",HCT 116 cells [4],lower micromolar range
(+)-discorhabdin G*/I [compound 4],"IC50 values, cytotoxicity in HCT 116 cells",HCT 116 cells [4],lower micromolar range
CN1C(=O)[C@]23CC4=CC=C[C@H](O)[C@H]4N2C(=O)[C@@]1(CO)SS3 [gliotoxin],"ENO1, VEGF, and LDHA mRNA expression in PC3 prostate cancer cells",[5],lowered
same,Effects on HIF target mRNA expression in HCT 116 cells,HCT 116 cells [6],no effects
"O=C1C2=C3C4=[N+](CCc5c[nH]c1c54)[C@@H]1C(=O)C=C4S[C@@H](C[C@@]43[C@H]1O)N2 [compound 9, (−)-discorhabdin L]",Hypoxia-induced VEGF secretion in HCT 116 cells,[1],none of these compounds significantly reduced
same,"Concentrations causing significant inhibition of luciferase activity, COLO 205","[3]; p < 0.05, 18 h, 0.5% O2",no effect
same,VEGF concentrations in LNCaP cells,[7]; 0.25–1 μM,borderline significant decrease
"O=C1C(NC2Cc3cc(Br)c(O)cc3S2)=CC2=NCCc3c[nH]c1c32 (single isomer, unassigned; (-)) [compound 5, (−)-makaluvamine F]",Inhibition of DNA topoisomerase II,DNA topoisomerase II,inhibit DNA topoisomerase II
same,"Concentrations causing significant inhibition of luciferase activity, COLO 205","[3]; p < 0.05, 18 h, 0.5% O2",no effect
same,Cell death in COLO 205 cells,COLO 205 cells,did not cause substantial cell death
"CN1C(=O)[C@]2(Cc3cn([C@]45C[C@@]67SS[C@@](CO)(C(=O)N6[C@H]4Nc4ccccc45)N(C)C7=O)c4ccccc34)SS[C@@]1(CO)C(=O)N2C [chetomin, reference compound]",IC50,HIF-1α/p300,1.9 ± 0.5 µM
"O=C1CC2SC3CC2(C=C1Br)C1=C(N3)C(=O)c2[nH]cc3c2C1=NCC3 (single isomer, unassigned; (+)) [compound 6, (+)-discorhabdin A]",Tumor growth in xenograft models,[8],did not reduce tumor growth
"O=C1C=C2S[C@H]3C[C@]2(C=C1Br)C1=C(N3)C(=O)c2[nH]cc3c2C1=NCC3 [compound 1, (+)-discorhabdin B]","Concentrations causing significant inhibition of luciferase activity, COLO 205","[3]; p < 0.05, 18 h, 0.5% O2",no effect
same,Tumor growth in xenograft models,[8],did not reduce tumor growth
(−)-discorhabdin H [compound 8],Hypoxia-induced VEGF secretion in HCT 116 cells,[1],none of these compounds significantly reduced
same,"Concentrations causing significant inhibition of luciferase activity, COLO 205","[3]; p < 0.05, 18 h, 0.5% O2",no effect
same,IC50,COLO 205 cells,> 10 µM
same,Cell death in COLO 205 cells,COLO 205 cells,did not cause substantial cell death
same,"Concentrations causing significant inhibition of luciferase activity, LNCaP","[9]; p < 0.05, 18 h, 1% O2, superscript a = >50% cell death in CCK-8 assay",0.1 µM
same,IC50,LNCaP cells,> 10 µM
same,IC50,HCT 116 cells [10]; [11],> 10 µM
same,IC50,"HCT 116 cells [10]; read-out: IC50 value (μM) ± SEM, HCT 116 (48 h, 0.5% O2), HCT 116, 48 h",> 50 µM
same,VEGF secretion in LNCaP cells,[7]; 0.5 μM,significant decrease; also recorded: significantly decreased
same,IC50,HIF-1α/p300; [12],2.2 ± 0.6 µM
"O=C1C2=C3C4=[N+](CCc5c[nH]c1c54)[C@H]1C[C@@]34C[C@@H](N2)SC4=CC1=O [compound 7, (−)-discorhabdin D]",Antitumor activity in vivo,[8],the only reported discorhabdin with such activity
(−)-discorhabdin W [compound 11],Effect on HIF-1α transcriptional (reporter) activity in HCT 116 cells,[2],reduced HIF reporter activity
same,"Concentrations causing significant inhibition of luciferase activity, COLO 205",[3],no effect
same,IC50,COLO 205 cells,> 10 µM
same,Cell death in COLO 205 cells,COLO 205 cells,did not cause substantial cell death
same,Activity in HIF reporter assay in LNCaP cells,[9],did not show activity
same,"Concentrations causing significant inhibition of luciferase activity, LNCaP",[9],no effect
same,IC50,LNCaP cells,> 10 µM
same,IC50,HCT 116 cells [10]; [11],> 10 µM
same,Activity in the screening assay,HIF-1α/p300; in words,no activity
same,IC50,HIF-1α/p300; [12],> 100 µM
